{"source": "patent US20070197573A1", "about": "“Compositions and methods in the treatment of bone metabolic disorders” (priority 2005, published 2007)", "key": {"[1]": {"conditions": "drug-dependent mice; cited from earlier work"}, "[2]": {"conditions": "cited from earlier work"}, "human osteoblasts": {"test_system": "human osteoblasts", "conditions": "in vitro treatment; cited from earlier work"}, "[3]": {"test_system": "sarcoma-induced bone loss", "assay": "Murine bone cancer model (sarcoma cells injected into femur), radiographic bone loss, fracture and pain under sustained morphine infusion", "format": "in vivo, mice"}, "sarcoma cells": {"test_system": "sarcoma cells", "assay": "Tumor growth in vitro", "format": "cell-based", "source_text": "(§1) The peripheral opioid antagonists according to the invention provide a conjunctive therapy for managing bone metabolism while opiates are in use. Specific data describing the metabolic effects of opiates on bone metabolism are provided in the examples."}, "osteoclasts": {"test_system": "osteoclasts", "assay": "Osteoclast count by TRAP staining in metaphysis of distal femur", "format": "in vivo, mice", "source_text": "Previous studies have shown that osteolytic cancers, such as the sarcoma cell line used in these studies, upregulate osteoclasts within the bone. To determine whether the enhanced morphine-induced bone loss is mediated through further upregulation of osteoclasts, osteoclasts were stained and counted within the metaphysis of the distal head of the femur using tartrate resistant acid phosphatase (TRAP) staining."}, "IL-1β": {"test_system": "IL-1β", "assay": "IL-1β level within the bone after sustained morphine infusion", "format": "in vivo, mice", "conditions": "sarcoma-induced", "source_text": "as §1"}, "μ opioid receptor": {"target": "μ opioid receptor (Homo sapiens, UniProt P35372)", "sequence (P35372 whole entry, species assumed)": "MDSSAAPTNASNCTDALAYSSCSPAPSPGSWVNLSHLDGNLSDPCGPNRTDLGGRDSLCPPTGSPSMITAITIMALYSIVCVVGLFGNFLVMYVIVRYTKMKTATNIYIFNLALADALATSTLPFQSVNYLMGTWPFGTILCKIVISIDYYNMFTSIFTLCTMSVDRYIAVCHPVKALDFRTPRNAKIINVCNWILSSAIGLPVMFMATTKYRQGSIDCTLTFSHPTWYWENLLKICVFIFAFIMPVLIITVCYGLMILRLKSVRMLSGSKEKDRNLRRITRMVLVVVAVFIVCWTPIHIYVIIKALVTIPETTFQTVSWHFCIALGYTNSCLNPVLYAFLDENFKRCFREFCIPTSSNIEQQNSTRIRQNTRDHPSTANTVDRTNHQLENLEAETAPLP", "conditions": "cited from earlier work"}, "delta receptors": {"target": "delta receptors (Homo sapiens, UniProt P41143)", "sequence (P41143 whole entry)": "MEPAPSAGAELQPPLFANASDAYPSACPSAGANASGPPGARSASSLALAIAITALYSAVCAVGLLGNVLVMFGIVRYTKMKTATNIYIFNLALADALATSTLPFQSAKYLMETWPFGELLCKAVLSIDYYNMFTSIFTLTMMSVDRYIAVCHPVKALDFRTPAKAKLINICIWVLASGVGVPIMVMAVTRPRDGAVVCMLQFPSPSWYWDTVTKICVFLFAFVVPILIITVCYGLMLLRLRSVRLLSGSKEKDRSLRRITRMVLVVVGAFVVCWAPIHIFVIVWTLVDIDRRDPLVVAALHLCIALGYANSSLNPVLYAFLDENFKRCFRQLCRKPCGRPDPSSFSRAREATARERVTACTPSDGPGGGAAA", "conditions": "in vitro; cited from earlier work"}, "[4]": {"conditions": "sustained morphine administration"}}}
{"compound": "CTAP", "values": [{"measurement": "withdrawal elicited, compared with naloxone", "setting": "[1]", "result": "significantly less withdrawal than naloxone"}]}
{"compound": "O=C(O)Cc1ccccc1Nc1c(Cl)cccc1Cl", "note": "[Diclofenac]", "values": [{"measurement": "therapeutic concentration in serum", "setting": "[2]", "result": "approximately 1.5 micrograms/ml"}, {"measurement": "concentration giving a significant decrease of cell proliferation", "setting": "human osteoblasts", "result": 6, "unit": "micrograms/ml"}]}
{"compound": "CN1CC[C@]23c4c5ccc(O)c4O[C@H]2[C@@H](O)C=C[C@H]3[C@H]1C5", "note": "[morphine]", "values": [{"measurement": "sarcoma-induced bone loss (radiograph rating) vs saline infusion", "setting": "[3]; 6 days after sarcoma injection", "result": "no difference between morphine or saline treated mice"}, {"measurement": "incidence of sarcoma-induced fracture vs saline infusion", "setting": "[3]; 10 days and 12 days after sarcoma injection into the femur", "result": "doubled"}, {"measurement": "sarcoma-induced bone loss (radiograph rating) vs saline infusion", "setting": "[3]; 12 days after femoral sarcoma injection, sustained morphine infusion", "result": "increased sarcoma-induced bone loss"}, {"measurement": "tumor burden in vivo", "setting": "[3]; in vivo", "result": "did not alter"}, {"measurement": "sarcoma-induced pain", "setting": "[3]; [4]", "result": "enhances sarcoma-induced pain"}, {"measurement": "time to fracture", "setting": "[3]; [4]", "result": "accelerated time to fracture"}, {"measurement": "tumor growth in vitro", "setting": "sarcoma cells", "result": "did not alter"}, {"measurement": "osteoclast TRAP staining vs saline", "setting": "osteoclasts; control animals (no sarcoma)", "result": "no difference in osteoclast staining"}, {"measurement": "osteoclast TRAP staining vs saline infusion", "setting": "osteoclasts; sarcoma treated animals, sustained morphine infusion", "result": "increased sarcoma-induced upregulation of osteoclasts"}, {"measurement": "IL-1β within the bone", "setting": "IL-1β", "result": "upregulated"}]}
{"compound": "O=C1C(=Cc2ccccc2)C[C@@]2(O)[C@H]3Cc4ccc(O)c5c4[C@@]2(CCN3CC2CC2)[C@H]1O5", "note": "[BNTX, 7-benzylidenenaltrexone]", "values": [{"measurement": "type of activity at the mu receptor", "setting": "μ opioid receptor", "result": "inverse agonist"}, {"measurement": "type of activity at the delta receptor", "setting": "delta receptors", "result": "inverse agonist"}]}
{"compound": "COc1cccc(C2(O)CCCCC2CN(C)C)c1", "note": "(centres unmarked) [Tramadol]", "values": [{"measurement": "therapeutic concentration in serum", "setting": "[2]", "result": 0.25, "unit": "micrograms/ml"}, {"measurement": "concentration giving a significant decrease of cell proliferation", "setting": "human osteoblasts", "result": "greater than 20 micrograms/ml"}]}
